{"source": "patent US20220280507A1", "about": "“USES OF 5-METHYLTETRAHYDROFOLATE AND ITS COMPOSITION” (Lianyungang Jinkang Hexin Pharmaceutical Co., Ltd., priority 2019, published 2022)", "key": {"IL-6": {"test_system": "IL-6", "assay": "LPS-induced inflammatory response in astrocytes, IL-6 release (ELISA)", "type": "cell-based, Kunming mice", "conditions": "culture supernatant, LPS 1 μg·ml-1 + substance 10 μg·ml-1, 24 h, n=6", "source_text": "(§1) Experiment 9 Inhibition of 5-Methyltetrahydrofolate and Curcumin on LPS-Induced Inflammatory Response in Astrocytes\n(§2) The cerebral cortex of Kunming mice at 1˜2 d was taken out under aseptic conditions, washed 3 times with cold PBS after removing residual meninges and blood vessels, prepared into single cell suspension by blowing, centrifuged, the supernatant was discarded, and the precipitant was resuspended in AST basic medium (high-sugar DMEM containing 10% FBS). The suspension was inoculated into a culture flask coated with poly-L-lysine (0.1 mg/ml), and cultured in a CO2 incubator. After 24 h, tissue debris and non-adherent cells were removed by replacing the medium. Afterwards, the medium was replaced every 3 days until the cells reached 80% confluence, then the flask was placed on a constant temperature rotary shaker, where the suspension was centrifuged at 180 r/min, 37° C. for 18 h to remove oligodendrocytes and microglia from the upper layer. Then trypsin digestion was used for subculture. […]\n(§3) LPS (1 μg·ml-1), LPS (1 μg·ml-1)+curcumin (10 μg·ml-1), LPS (1 μg·ml-1)+5-MTHF-Ca (10 μg·ml-1); experimental group: LPS (1 μg·ml-1)+curcumin (5 μg·ml-1)+5-MTHF-Ca (5 μg·ml-1). After 24 h, the culture supernatant was collected, and the cytokines IL-6, IL-1β and TNF-α were detected by ELISA."}, "IL-1β [1]": {"test_system": "IL-1β", "assay": "LPS-induced inflammatory response in astrocytes, IL-1β release (ELISA)", "type": "cell-based, Kunming mice", "conditions": "culture supernatant, LPS 1 μg·ml-1 + substance 10 μg·ml-1, 24 h, n=6", "source_text": "as §1, §2, §3"}, "TNF-α [2]": {"test_system": "TNF-α", "assay": "LPS-induced inflammatory response in astrocytes, TNF-α release (ELISA)", "type": "cell-based, Kunming mice", "conditions": "culture supernatant, LPS 1 μg·ml-1 + substance 10 μg·ml-1, 24 h, n=6", "source_text": "as §1, §2, §3"}, "[3]": {"assay": "Alcoholic fatty liver model, body weight during administration period", "type": "in vivo, SD rats", "conditions": "liquor model, 50 mg·kg−1·d−1 ig", "experimental": "(§4) According to their weight, they were randomly divided into vehicle control group (purified water, ig), model control group (liquor, 10 ml·Kg−1), positive control group (bicyclol, 50 mg·Kg−1, ig), folic acid calcium salt high-dose group (4 mg·Kg−1), folic acid calcium salt medium-dose group (2 mg·Kg−1), folic acid calcium salt low-dose group (1 mg·Kg−1), in half female and half male, and 16 rats in each group. Purified water was used as a negative control, and bicyclol (place of origin: Beijing Xiehe Pharmaceutical Factory, specification: 25 mg/tablet, batch number: H20040467) was used as a positive control drug. Route of administration: all were administered by oral gavage. Dosage of administration: 1 mg·Kg−1, 2 mg·Kg−1, and 4 mg·Kg−1. Frequency of administration: once a day for 60 consecutive days.\n(§5) Method of administration: administration started at prescribed doses on the day of modeling for 60 consecutive days and ended at the 60th day. At the same time, rats in each group were weighed every other week during administration period to monitor their body weight changes. On the 61st day, rats were dissected and serum was collected for determination of triglyceride (TG), total cholesterol (TC), malondialdehyde (MDA), superoxide dismutase (SOD) and liver histopathologic examination. The brain tissue of rats was taken out, and hippocampus tissue was separated on ice plate, prepared to homogenate with a mass fraction of 10% with purified water, then the homogenate was centrifuged to obtain supernatant. ELISA was used to detect the levels of inflammatory factors TNF-α and IL-1β in hippocampus tissue with continuous spectrum scanning microplate reader."}, "[4]": {"test_system": "alcoholic liver damage and fatty liver", "assay": "Alcoholic fatty liver model, serum TG, TC, SOD, MDA and liver histopathology", "type": "in vivo, SD rats", "experimental": "as §4, with “96 SPF-grade SD rats were chosen in half female and half male with an average weight of 176-220 g at the beginning of the experiment. According” for “According”, “days. Erguotou (batch number: 201603092, specification: 2L, place of origin: Beijing Shunxin Agriculture Co., Ltd.) model establishing method: gavage with diluted 56-degree Erguotou twice a day for 60 consecutive days.” for “days.”\nas §5"}, "TNF-α [5]": {"test_system": "TNF-α", "assay": "Alcoholic fatty liver model, TNF-α in hippocampus tissue (ELISA)", "type": "in vivo, SD rats", "conditions": "liquor model, 50 mg·kg−1·d−1 ig 60 d, n=16", "experimental": "as §4, §5"}, "IL-1β [6]": {"test_system": "IL-1β", "assay": "Alcoholic fatty liver model, IL-1β in hippocampus tissue (ELISA)", "type": "in vivo, SD rats", "conditions": "liquor model, 50 mg·kg−1·d−1 ig 60 d, n=16", "experimental": "as §4, §5"}, "hyperlipemia rats [7]": {"test_system": "hyperlipemia rats", "assay": "Hyperlipemia rats (high-fat diet), body mass, liver mass, liver index, NASH pathology", "type": "in vivo, SD rats", "conditions": "positive drug group, 60 d", "experimental": "(§6) Experiment 5 Effect of 5-Methyltetrahydrofolate Calcium on Hyperlipemia Rats\n(§7) 7 weeks later, one rat in the control group and one rat in the model group were sacrificed for liver tissue section to check fatty degeneration of hepatocytes (see Table 7) to confirm whether modeling was successful. The remaining 40 modeling rats were randomly divided into low-dose (1 mg·Kg−1) group, medium-dose (2 mg·Kg−1) group, high-dose (4 mg·Kg−1) group, positive drug group, and model group.\n(§8) Bicyclol (place of origin: Beijing Xiehe Pharmaceutical Factory, specification: 25 mg/tablet, batch number: H20040467) was used as a positive drug.\n(§9) After successful modeling, rats were administered drugs with dosages as prescribed for 60 consecutive days, continued to be fed with high-fat diet, and dissected on the 61st day. Liver was harvested and weighed, liver index was calculated, right lobe tissue was taken to prepare frozen sections, and fat staining was performed with Sudan III for pathological scoring according to guidelines for diagnosis and treatment of NAFLD. Another liver tissue was taken to prepare homogenate, and total cholesterol (TC), triglyceride (TG), malondialdehyde (MDA), and superoxide dismutase (SOD) in serum were detected."}, "hyperlipemia rats [8]": {"test_system": "hyperlipemia rats", "assay": "Hyperlipemia rats (high-fat diet), biochemical indexes TG, TC, SOD, MDA", "type": "in vivo, SD rats", "conditions": "50 mg·kg−1·d−1, 60 d", "experimental": "as §6, §7, §8, §9"}, "[9]": {"conditions": "day 61, liquor model, 50 mg·kg−1·d−1 ig 60 d, n=16"}, "[10]": {"conditions": "serum day 61, liquor model, 50 mg·kg−1·d−1 ig 60 d, n=16"}}}
{"smiles": "COc1cc(/C=C/C(=O)CC(=O)/C=C/c2ccc(O)c(OC)c2)ccc1O", "note": "[Cur, curcumin, reference compound]", "values": [{"measurement": "IL-6", "setting": "IL-6", "result": "1003.97 ± 60.33", "unit": "pg/mL"}, {"measurement": "IL-1β", "setting": "IL-1β [1]", "result": "742.12 ± 10.33", "unit": "pg/mL"}, {"measurement": "TNF-α", "setting": "TNF-α [2]", "result": "492.32 ± 8.92", "unit": "pg/mL"}]}
{"smiles": "COC(=O)c1cc(OC)c2c(c1-c1c(CO)cc(OC)c3c1OCO3)OCO2", "note": "[bicyclol, reference compound]", "values": [{"measurement": "Body weight", "setting": "[3]; Week 0, n=16", "result": 188.19, "unit": "g"}, {"measurement": "Body weight", "setting": "[3]; Week 1, n=16", "result": 211.95, "unit": "g"}, {"measurement": "Body weight", "setting": "[3]; Week 2, n=16", "result": 279.31, "unit": "g"}, {"measurement": "Body weight", "setting": "[3]; Week 3, n=16", "result": 292.58, "unit": "g"}, {"measurement": "Body weight", "setting": "[3]; Week 4, n=16", "result": 317.80, "unit": "g"}, {"measurement": "Body weight", "setting": "[3]; Week 5, n=16", "result": 313.19, "unit": "g"}, {"measurement": "Body weight", "setting": "[3]; Week 6, n=16", "result": 333.57, "unit": "g"}, {"measurement": "Body weight", "setting": "[3]; Week 7, n=16", "result": 360.01, "unit": "g"}, {"measurement": "Body weight", "setting": "[3]; Week 8, n=16", "result": 380.37, "unit": "g"}, {"measurement": "MDA", "setting": "[4]; [9]", "result": "70.41 ± 20.33", "unit": "nmol/mgprot"}, {"measurement": "SOD", "setting": "[4]; [9]", "result": "167.47 ± 18.91^ U/mgprot"}, {"measurement": "Pathological examination of liver", "setting": "[4]; liquor model, positive drug group 50 mg·Kg−1 ig 60 d", "result": "no hyperplasia of interstitial connective tissue and fatty degeneration of hepatocytes"}, {"measurement": "TC", "setting": "[4]; [10]", "result": "1.45 ± 0.43", "unit": "mmol/L"}, {"measurement": "TG", "setting": "[4]; [10]", "result": "1.03 ± 0.34", "unit": "mmol/L"}, {"measurement": "TNF-α in hippocampus tissue", "setting": "TNF-α [5]", "result": "286.32 ± 43.79.* μg · g^−1 prot"}, {"measurement": "IL-1β in hippocampus tissue", "setting": "IL-1β [6]", "result": "73.93 ± 9.37", "unit": "μg · g^−1 prot"}, {"measurement": "Body mass", "setting": "hyperlipemia rats [7]; 8 cases", "result": "453.8 ± 34.7", "unit": "g"}, {"measurement": "Liver index", "setting": "hyperlipemia rats [7]; 8 cases", "result": "3.2 ± 0.4"}, {"measurement": "Liver mass", "setting": "hyperlipemia rats [7]; 8 cases", "result": "14.6 ± 4.5", "unit": "g"}, {"measurement": "Pathological state (NASH)", "setting": "hyperlipemia rats [7]; of 8 cases", "result": 2, "unit": "cases"}, {"measurement": "MDA", "setting": "hyperlipemia rats [8]", "result": "72.39 ± 19.23", "unit": "nmol/mgprot"}, {"measurement": "SOD", "setting": "hyperlipemia rats [8]", "result": "157.41 ± 16.45^ U/mgprot"}, {"measurement": "TC", "setting": "hyperlipemia rats [8]", "result": "1.45 ± 0.63", "unit": "mmol/L"}, {"measurement": "TG", "setting": "hyperlipemia rats [8]", "result": "1.23 ± 0.35", "unit": "mmol/L"}]}
